Results from ChEMBL document CHEMBL1142268, “Histone deacetylase inhibitors: from bench to clinic” (J Med Chem, 2008).

Key:
Jurkat = experiment: Inhibition of human Jurkat cells; format: functional, cell-based
Histone deacetylase [1] = experiment: Inhibition of HDAC from human Jurkat cells
NCI-H460 = experiment: Inhibition of human NCI-H460 cells; format: functional, cell-based
[2] = Antiproliferative activity against human MDA435 cells; format: functional, cell-based; details: MDA-MB-435
Histone deacetylase [3] = experiment: Inhibition of HDAC from human K562 cells; format: cell-based
HT-1080 = experiment: Inhibition of human HT1080 cells; format: functional, cell-based
SK-BR-3 = experiment: Antiproliferative activity against human SKBR3 cells; format: functional, cell-based
A549 = experiment: cells; details: Homo sapiens
Description: Antiproliferative activity against human A549 cells

Histone deacetylase [4] = experiment: Inhibition of HDAC from human SNU16 cells; details: snu-16
MKN-45 = experiment: Antiproliferative activity against human MKN45 cells; format: functional, cell-based

SMILES | IC50 (Jurkat) [nM] | IC50 (Histone deacetylase [1]) [nM] | IC50 [2] [µM] | IC50 (Histone deacetylase [3]) [nM] | further results
O=C(/C=C/c1cccc(Cc2nc3ccccc3[nH]2)c1)NO | 150 | 150 |  |  | 
O=C(CCCCCCS)Nc1ccccc1 |  |  |  |  | EC50 (NCI-H460): > 50 µM
CNC(=O)C(=O)CCCCCCC(=O)Nc1nc(-c2ccc(OC)cc2)cs1 |  |  | 5.8 | 9.1 | 
CNC(=O)C(=O)CCCCCCC(=O)Nc1cccc(-c2ccccc2)c1 |  |  | 14 | 3.7 | IC50 (HT-1080): 6.9 µM
CC(C)C(=O)SCCCCCCC(=O)Nc1ccccc1 |  |  |  |  | EC50 (NCI-H460): 20 µM
O=C(/C=C/c1ccc(Cc2nc3ccccc3[nH]2)cc1)NO | 69 | 28 |  |  | 
O=C(/C=C/c1ccc(CNC(=O)c2ccccn2)cc1)NO |  |  |  |  | IC50 (SK-BR-3): 870 nM; IC50 (A549): 2230 nM; IC50 (Histone deacetylase [4]): 941 nM; IC50 (MKN-45): 3.64 µM
O=C(/C=C/c1ccc(CCc2nc3ccccc3[nH]2)cc1)NO | 160 | 140 |  |  | 
O=C(/C=C/c1ccc(CNC(=O)c2cccnc2)cc1)NO |  |  |  |  | IC50 (SK-BR-3): 1280 nM; IC50 (A549): 2890 nM; IC50 (Histone deacetylase [4]): 370 nM; IC50 (MKN-45): 4.98 µM
CNC(=O)C(=O)CCCCCCC(=O)Nc1nc(-c2ccc(CCN(C)C)cc2)cs1 |  |  | 0.16 | 3.1 | 
CNC(=O)C(=O)CCCCCCC(=O)Nc1nc(-c2cccnc2)cs1 |  |  | 2 | 4.3 | IC50 (HT-1080): 0.67 µM
CCC(c1ccc(/C=C/C(=O)NO)cc1)c1nc2ccccc2n1CC (stereo not drawn) | 310 | 96 |  |  | 
